Results as given in patent US20180185408A1, “ANTIFUNGAL NYLON-3 POLYMERS AND COMBINATION THERAPY USING THEM TO TREAT FUNGAL INFECTIONS” (priority 2016, published 2018).
Converted amounts (≈) assume the structure as drawn. “And” between values parts separate entries of the source, which are not always exact repeats. Equal values may be shown once. Read-outs that look alike come from different tables or passages of the source.

Experiments:
Candida albicans [1] = assay: Minimum fungicidal concentration (MFC), plating after MIC assay; type: cell-based
Cryptococcus spp. = assay: MIC and MFC by broth microdilution, summary over Cryptococcus strains; type: cell-based
Candida lusitaniae [2] = assay: MIC by broth microdilution (CLSI M27-A3); type: cell-based
Cryptococcus neoformans [3] = assay: Minimum fungicidal concentration (MFC), plating after MIC assay; type: cell-based
Candida lusitaniae [4] = assay: as above; type: cell-based; conditions: Clavispora lusitaniae, C. Lusitania (CL3), Sensitive; RPMI 1640 (0.2% Glucose); […]10^5 cells/mL; 30° C.; read-out: MFC
C. krusei = assay: MIC100 against yeast (CLSI M27-A3); type: cell-based, Candida krusei
Cryptococcus gattii [5] = assay: MIC by broth microdilution (CLSI M27-A3); type: cell-based; conditions: Cryptococcus gattii, […]10^3 cells/mL, read-out: MIC
Candida albicans [6] = assay: MIC by broth microdilution (CLSI M27-A3); type: cell-based; parameters: polymer efficacy against budding yeasts, 50%: unit not given here; conditions: for MIC: read-out: MIC
Candida spp. = assay: MIC and MFC by broth microdilution, summary over Candida strains; type: cell-based
Cryptococcus neoformans [7] = assay: MIC by broth microdilution (CLSI M27-A3); type: cell-based; conditions: for MIC: […]10^3 cells/mL
Cryptococcus gattii [8] = assay: Minimum fungicidal concentration (MFC), plating after MIC assay; type: cell-based; conditions: Cryptococcus gattii, Sensitive, RPMI 1640 (0.2% Glucose), […]10^3 cells/mL, 37° C., read-out: MFC
filamentous fungi = assay: MIC100 against non-Aspergillus filamentous fungi (CLSI M38-A2); type: cell-based; conditions: Cryptococcus depauperatus, CBS7855; Filobasidiella depauperata isolate CBS 7855; 50% reduction in growth

Compound: OC(Cn1cncn1)(Cn1cncn1)c1ccc(F)cc1F [FLC, fluconazole]
- MFC (Candida albicans [1]; C. albicans (E4), Amp B Resistant, RPMI 1640 (0.2% Glucose), […]10^5 cells/mL, 30° C.): >200 µg/mL
- MFC (Candida albicans [1]; C. albicans (Gu5), Fluconazole Resistant, RPMI 1640 (0.2% Glucose), […]10^5 cells/mL, 30° C.): >200 µg/mL
- MFC (Candida albicans [1]; C. albicans (K1), Fluconazole Resistant, RPMI 1640 (0.2% Glucose), […]10^5 cells/mL, 30° C.): >200 µg/mL
- MFC (Candida albicans [1]; C. albicans (SCG5314), Sensitive, RPMI 1640 (0.2% Glucose), […]10^5 cells/mL, 30° C.): >200 µg/mL
- MFC (Candida albicans [1]; Candida albicans, SC5314, read-out: MFC): > 200 µg/mL and > 653 µM
- MFC (Candida albicans [1]; Candida albicans, read-out: MFC): > 200 µg/mL and > 653 µM
- MFC (Candida albicans [1]; E4, […]10^5 cells/mL, 30°C, avg., listed as FLU): >200 µg/mL
- MFC (Candida albicans [1]; E4, […]10^5 cells/mL, 30°C, avg., listed as FLU, read-out: MFC): >653 µM
- MFC (Candida albicans [1]; E4, […]10^5 cells/mL, 30°C, trial 1, listed as FLU): >200 µg/mL
- MFC (Candida albicans [1]; E4, […]10^5 cells/mL, 30°C, trial 1, listed as FLU, read-out: MFC): >653 µM
- MFC (Candida albicans [1]; E4, […]10^5 cells/mL, 30°C, trial 2, listed as FLU): >200 µg/mL
- MFC (Candida albicans [1]; E4, […]10^5 cells/mL, 30°C, trial 2, listed as FLU, read-out: MFC): >653 µM
- MFC (Candida albicans [1]; Gu5, […]10^5 cells/mL, 30°C, avg., listed as FLU): >200 µg/mL
- MFC (Candida albicans [1]; Gu5, […]10^5 cells/mL, 30°C, avg., listed as FLU, read-out: MFC): >653 µM
- MFC (Candida albicans [1]; Gu5, […]10^5 cells/mL, 30°C, trial 1, listed as FLU): >200 µg/mL
- MFC (Candida albicans [1]; Gu5, […]10^5 cells/mL, 30°C, trial 1, listed as FLU, read-out: MFC): >653 µM
- MFC (Candida albicans [1]; Gu5, […]10^5 cells/mL, 30°C, trial 2, listed as FLU): >200 µg/mL
- MFC (Candida albicans [1]; Gu5, […]10^5 cells/mL, 30°C, trial 2, listed as FLU, read-out: MFC): >653 µM
- MFC (Candida albicans [1]; K1, […]10^5 cells/mL, 30°C, avg., listed as FLU): >200 µg/mL
- MFC (Candida albicans [1]; K1, […]10^5 cells/mL, 30°C, avg., listed as FLU, read-out: MFC): >653 µM
- MFC (Candida albicans [1]; K1, […]10^5 cells/mL, 30°C, trial 2, listed as FLU): >200 µg/mL
- MFC (Candida albicans [1]; K1, […]10^5 cells/mL, 30°C, trial 2, listed as FLU, read-out: MFC): >653 µM
- MFC (Candida albicans [1]; SC5314, […]10^5 cells/mL, 30°C, avg., listed as FLU): >200 µg/mL
- MFC (Candida albicans [1]; SC5314, […]10^5 cells/mL, 30°C, avg., listed as FLU, read-out: MFC): >653 µM
- MFC (Candida albicans [1]; SC5314, […]10^5 cells/mL, 30°C, trial 1, listed as FLU): >200 µg/mL
- MFC (Candida albicans [1]; SC5314, […]10^5 cells/mL, 30°C, trial 1, listed as FLU, read-out: MFC): >653 µM
- MIC (Cryptococcus spp.; Cryptococcus): ≤ 10 µM
- MFC (Cryptococcus spp.; Cryptococcus test strains (FLC: all strains except C21F3), read-out: MFC): > 100 µM
- MIC (Candida lusitaniae [2]; CL3, […]10^3 cells/mL, 35°C, OD600 24 h, avg., listed as FLU): >200 µg/mL
- MIC (Candida lusitaniae [2]; CL3, […]10^3 cells/mL, 35°C, OD600 24 h, avg., listed as FLU, read-out: MIC): >653.0 µM
- MIC (Candida lusitaniae [2]; CL3, […]10^3 cells/mL, 35°C, OD600 24 h, trial 2, listed as FLU): >200 µg/mL
- MIC (Candida lusitaniae [2]; CL3, […]10^3 cells/mL, 35°C, OD600 24 h, trial 2, listed as FLU, read-out: MIC): >653.0 µM
- MIC (Candida lusitaniae [2]; CL3, […]10^5 cells/mL, 30°C, OD600 48 h, avg., listed as FLU): 0.8 µg/mL
- MIC (Candida lusitaniae [2]; CL3, […]10^5 cells/mL, 30°C, OD600 48 h, avg., listed as FLU, read-out: MIC): 2.6 µM
- MIC (Candida lusitaniae [2]; CL3, […]10^5 cells/mL, 30°C, OD600 48 h, trial 2, listed as FLU): 0.8 µg/mL
- MIC (Candida lusitaniae [2]; CL3, […]10^5 cells/mL, 30°C, OD600 48 h, trial 2, listed as FLU, read-out: MIC): 2.6 µM
- MIC (Candida lusitaniae [2]; Clavispora lusitaniae, 24 h, read-out: MIC): > 200 µg/mL and > 653 µM
- MIC (Candida lusitaniae [2]; Clavispora lusitaniae, 48 h, read-out: MIC): 0.8 µg/mL and 2.6 µM
- concentration at which strain was killed (MFC) (Cryptococcus neoformans [3]; C21F3): ~5 µM
- MFC (Cryptococcus neoformans [3]; Cryptococcus neoformans, C. neoformans (C21F3), Rapamycin Resistant, RPMI 1640 (0.2% Glucose), […]10^3 cells/mL, 37° C.): 1.6 µg/mL (≈ 5.22 µM)
- MFC (Candida lusitaniae [4]): 50 µg/mL (≈ 163 µM)
- polymer efficacy against budding yeasts, 50% (C. krusei; C. krusei QC, CLSI QC isolate for susceptibility testing): 32
- MIC50 (C. krusei; Pichia kudriavzevii, Candida krusei QC): 32 µg/mL (≈ 104 µM)
- MIC (Cryptococcus gattii [5]; 48 h, C751, 30°C, OD600 48 h, Table 15): 5.2 µM
- MIC (Cryptococcus gattii [5]; 48 h, C751, 30°C, OD600 48 h): 1.6 µg/mL
- MIC (Cryptococcus gattii [5]; 48 h, WM276, 30°C, OD600 48 h, Table 15): 2.6 µM
- MIC (Cryptococcus gattii [5]; 48 h, WM276, 30°C, OD600 48 h): 0.8 µg/mL
- MIC (Cryptococcus gattii [5]; C. gattii (C751), Sensitive, RPMI 1640 (0.2% Glucose), 37° C.): 1.6 µg/mL
- MIC (Cryptococcus gattii [5]; C. gattii (C751), 30°C): 5.2 µM
- MIC (Cryptococcus gattii [5]; C. gattii (WM275), Sensitive, RPMI 1640 (0.2% Glucose), 37° C.): 0.8 µg/mL
- MIC (Cryptococcus gattii [5]; C. gattii (WM276), 30°C): 2.6 µM
- MIC50 (Candida albicans [6]; ATCC90028, Candida albicans ATCC 90028): 1 µg/mL (≈ 3.27 µM)
- polymer efficacy against budding yeasts, 50% (Candida albicans [6]; C. albicans CA1, ATCC90028, Blood): 1
- polymer efficacy against budding yeasts, 50% (Candida albicans [6]; C. albicans CA2, SC5314): 0.25
- polymer efficacy against budding yeasts, 50% (Candida albicans [6]; C. albicans CA3, Blood, Azole resistant): >64
- MIC50 (Candida albicans [6]; Candida albicans CA3, Resistance Azole): > 64 µg/mL
- MIC (Candida albicans [6]; Candida albicans, C. albicans (E4), Amp B Resistant, RPMI 1640 (0.2% Glucose), […]10^5 cells/mL, 30° C.): > 200 µg/mL
- MIC (Candida albicans [6]; Candida albicans, C. albicans (E4), […]10^3 cells/mL, 35°C): > 654 µM
- MIC (Candida albicans [6]; Candida albicans, C. albicans (Gu5), Fluconazole Resistant, RPMI 1640 (0.2% Glucose), […]10^5 cells/mL, 30° C.): > 200 µg/mL
- MIC (Candida albicans [6]; Candida albicans, C. albicans (Gu5), […]10^3 cells/mL, 35°C): > 654 µM
- MIC (Candida albicans [6]; Candida albicans, C. albicans (K1), Fluconazole Resistant, RPMI 1640 (0.2% Glucose), […]10^5 cells/mL, 30° C.): > 200 µg/mL
- MIC (Candida albicans [6]; Candida albicans, C. albicans (K1), […]10^3 cells/mL, 35°C): > 654 µM
- MIC (Candida albicans [6]; Candida albicans, C. albicans (SCG5314), Sensitive, RPMI 1640 (0.2% Glucose), […]10^5 cells/mL, 30° C.): < 0.2 µg/mL
- MIC50 (Candida albicans [6]; Candida albicans, SC5314): 0.25 µg/mL (≈ 0.816 µM)
- MIC (Candida albicans [6]; Candida albicans, SC5314, C. albicans (SC5314), […]10^3 cells/mL, 35°C): > 654 µM
- MFC (Candida spp.; Candida resistant strains (totally resistant)): > 654 µM
- MIC and MFC values (Candida spp.; Candida sensitive strains): low μM
- polymer efficacy against budding yeasts, 50% (Cryptococcus neoformans [7]): >64
- polymer efficacy against budding yeasts, 50% (Cryptococcus neoformans [7]; C. neoformans CN1, Clinical isolate, Azole susceptible): 4
- MIC (Cryptococcus neoformans [7]; Cryptococcus neoformans, 48 h, C21F3, 30°C, OD600 48 h): 1.6 µg/mL
- MIC (Cryptococcus neoformans [7]; Cryptococcus neoformans, 48 h, C21F3, 30°C, OD600 48 h, Table 15): 5.2 µM
- MIC (Cryptococcus neoformans [7]; Cryptococcus neoformans, 48 h, H99, 30°C, OD600 48 h): 3.1 µg/mL
- MIC (Cryptococcus neoformans [7]; Cryptococcus neoformans, 48 h, H99, 30°C, OD600 48 h, Table 15): 10.1 µM
- MIC (Cryptococcus neoformans [7]; Cryptococcus neoformans, 48 h, JEC21, 30°C, OD600 48 h): 1.6 µg/mL
- MIC (Cryptococcus neoformans [7]; Cryptococcus neoformans, 48 h, JEC21, 30°C, OD600 48 h, Table 15): 5.2 µM
- MIC (Cryptococcus neoformans [7]; Cryptococcus neoformans, C. neoformans (C21F3), 30°C): 5.2 µM
- MIC (Cryptococcus neoformans [7]; Cryptococcus neoformans, C. neoformans (H99), Sensitive, RPMI 1640 (0.2% Glucose), 37° C.): 3.1 µg/mL
- MIC (Cryptococcus neoformans [7]; Cryptococcus neoformans, C. neoformans (H99), 30°C): 10.1 µM
- MIC (Cryptococcus neoformans [7]; Cryptococcus neoformans, C. neoformans (JEC21), Sensitive, RPMI 1640 (0.2% Glucose), 37° C.): 1.6 µg/mL
- MIC (Cryptococcus neoformans [7]; Cryptococcus neoformans, C. neoformans (JEC21), 30°C): 5.2 µM
- MIC50 (Cryptococcus neoformans [7]; Cryptococcus neoformans, Cryptococcus neoformans CN1): 4 µg/mL (≈ 13.1 µM)
- MFC (Cryptococcus gattii [8]; C. gattii (C751)): 37.5 µg/mL (≈ 122 µM)
- MFC (Cryptococcus gattii [8]; C. gattii (WM275)): > 100 µg/mL
- MIC50 (filamentous fungi): 64 µg/mL (≈ 209 µM)
